# According to the NIST ThermoML archive (doi:10.1021/je700281z):
# Numbers after ± are expanded uncertainties.
# Experiment: xn = mol fraction of the nth substance listed
# Settings: 101 kPa, Liquid
compound,measurement,setting,value
COCCOCCO [2-(2-methoxyethoxy)ethanol] + CCCCO,mass density,"293.15 K, x1 = 0.0535",823.612 ± 0.85 kg/m3
same,mass density,"293.15 K, x1 = 0.1527",848.542 ± 0.8 kg/m3
same,mass density,"293.15 K, x1 = 0.2",860.004 ± 0.78 kg/m3
same,mass density,"293.15 K, x1 = 0.2003",860.091 ± 0.78 kg/m3
same,mass density,"293.15 K, x1 = 0.2518",872.235 ± 0.77 kg/m3
same,mass density,"293.15 K, x1 = 0.3009",883.531 ± 0.75 kg/m3
same,mass density,"293.15 K, x1 = 0.3032",884.084 ± 0.75 kg/m3
same,mass density,"293.15 K, x1 = 0.3546",895.622 ± 0.74 kg/m3
same,mass density,"293.15 K, x1 = 0.399",905.367 ± 0.74 kg/m3
same,mass density,"293.15 K, x1 = 0.4007",905.744 ± 0.74 kg/m3
same,mass density,"293.15 K, x1 = 0.4522",916.775 ± 0.74 kg/m3
same,mass density,"293.15 K, x1 = 0.5012",927.038 ± 0.74 kg/m3
same,mass density,"293.15 K, x1 = 0.5527",937.589 ± 0.75 kg/m3
same,mass density,"293.15 K, x1 = 0.5978",946.625 ± 0.76 kg/m3
same,mass density,"293.15 K, x1 = 0.6019",947.427 ± 0.77 kg/m3
same,mass density,"293.15 K, x1 = 0.6526",957.368 ± 0.78 kg/m3
same,mass density,"293.15 K, x1 = 0.6961",965.704 ± 0.8 kg/m3
same,mass density,"293.15 K, x1 = 0.7503",975.858 ± 0.83 kg/m3
same,mass density,"293.15 K, x1 = 0.7973",984.5 ± 0.86 kg/m3
same,mass density,"293.15 K, x1 = 0.8492",993.819 ± 0.89 kg/m3
same,mass density,"293.15 K, x1 = 0.8978",1002.37 ± 0.94 kg/m3
same,mass density,"293.15 K, x1 = 0.947",1010.88 ± 1 kg/m3
same,mass density,"298.15 K, x1 = 0.053",819.639 ± 0.86 kg/m3
same,mass density,"298.15 K, x1 = 0.1019",832.026 ± 0.83 kg/m3
same,mass density,"298.15 K, x1 = 0.1502",843.949 ± 0.81 kg/m3
same,mass density,"298.15 K, x1 = 0.2028",856.65 ± 0.79 kg/m3
same,mass density,"298.15 K, x1 = 0.2523",868.3 ± 0.78 kg/m3
same,mass density,"298.15 K, x1 = 0.3497",890.395 ± 0.76 kg/m3
same,mass density,"298.15 K, x1 = 0.454",912.946 ± 0.75 kg/m3
same,mass density,"298.15 K, x1 = 0.5507",932.958 ± 0.76 kg/m3
same,mass density,"298.15 K, x1 = 0.6013",943.061 ± 0.78 kg/m3
same,mass density,"298.15 K, x1 = 0.648",952.194 ± 0.79 kg/m3
same,mass density,"298.15 K, x1 = 0.6994",962.043 ± 0.81 kg/m3
same,mass density,"298.15 K, x1 = 0.7465",970.86 ± 0.83 kg/m3
same,mass density,"298.15 K, x1 = 0.7505",971.594 ± 0.84 kg/m3
same,mass density,"298.15 K, x1 = 0.7968",980.073 ± 0.86 kg/m3
same,mass density,"298.15 K, x1 = 0.7977",980.251 ± 0.86 kg/m3
same,mass density,"298.15 K, x1 = 0.8465",988.996 ± 0.9 kg/m3
same,mass density,"298.15 K, x1 = 0.8486",989.382 ± 0.9 kg/m3
same,mass density,"298.15 K, x1 = 0.8987",998.178 ± 0.94 kg/m3
same,mass density,"298.15 K, x1 = 0.899",998.234 ± 0.94 kg/m3
same,mass density,"298.15 K, x1 = 0.9481",1006.69 ± 1 kg/m3
same,mass density,"298.15 K, x1 = 0.9483",1006.72 ± 1 kg/m3
same,mass density,"303.15 K, x1 = 0.0508",815.157 ± 0.87 kg/m3
same,mass density,"303.15 K, x1 = 0.1014",827.941 ± 0.84 kg/m3
same,mass density,"303.15 K, x1 = 0.1471",839.22 ± 0.82 kg/m3
same,mass density,"303.15 K, x1 = 0.2015",852.303 ± 0.8 kg/m3
same,mass density,"303.15 K, x1 = 0.2528",864.365 ± 0.79 kg/m3
same,mass density,"303.15 K, x1 = 0.3048",876.239 ± 0.78 kg/m3
same,mass density,"303.15 K, x1 = 0.3503",886.405 ± 0.77 kg/m3
same,mass density,"303.15 K, x1 = 0.3555",887.558 ± 0.77 kg/m3
same,mass density,"303.15 K, x1 = 0.4005",897.361 ± 0.76 kg/m3
same,mass density,"303.15 K, x1 = 0.4503",908.007 ± 0.76 kg/m3
same,mass density,"303.15 K, x1 = 0.4981",917.96 ± 0.77 kg/m3
same,mass density,"303.15 K, x1 = 0.5518",928.933 ± 0.77 kg/m3
same,mass density,"303.15 K, x1 = 0.5996",938.439 ± 0.79 kg/m3
same,mass density,"303.15 K, x1 = 0.648",947.877 ± 0.8 kg/m3
same,mass density,"303.15 K, x1 = 0.6991",957.619 ± 0.82 kg/m3
same,mass density,"303.15 K, x1 = 0.7497",967.071 ± 0.85 kg/m3
same,mass density,"303.15 K, x1 = 0.7954",975.414 ± 0.87 kg/m3
same,mass density,"303.15 K, x1 = 0.8491",985.035 ± 0.91 kg/m3
same,mass density,"303.15 K, x1 = 0.8964",993.318 ± 0.94 kg/m3
same,mass density,"303.15 K, x1 = 0.9513",1002.75 ± 1 kg/m3
"CCCCOCCOCCO [3,6-dioxa-1-decanol] + CCCCO",mass density,"293.15 K, x1 = 0.1013",834.791 ± 0.82 kg/m3
same,mass density,"293.15 K, x1 = 0.1505",845.543 ± 0.81 kg/m3
same,mass density,"293.15 K, x1 = 0.2017",855.876 ± 0.79 kg/m3
same,mass density,"293.15 K, x1 = 0.2529",865.45 ± 0.78 kg/m3
same,mass density,"293.15 K, x1 = 0.3005",873.704 ± 0.78 kg/m3
same,mass density,"293.15 K, x1 = 0.3516",881.978 ± 0.78 kg/m3
same,mass density,"293.15 K, x1 = 0.4507",896.487 ± 0.79 kg/m3
same,mass density,"293.15 K, x1 = 0.5005",903.11 ± 0.81 kg/m3
same,mass density,"293.15 K, x1 = 0.5506",909.377 ± 0.82 kg/m3
same,mass density,"293.15 K, x1 = 0.6036",915.608 ± 0.84 kg/m3
same,mass density,"293.15 K, x1 = 0.6493",920.67 ± 0.86 kg/m3
same,mass density,"293.15 K, x1 = 0.7",925.984 ± 0.89 kg/m3
same,mass density,"293.15 K, x1 = 0.7292",928.912 ± 0.91 kg/m3
same,mass density,"293.15 K, x1 = 0.749",930.843 ± 0.92 kg/m3
same,mass density,"293.15 K, x1 = 0.8483",939.967 ± 0.99 kg/m3
same,mass density,"298.15 K, x1 = 0.0521",819.296 ± 0.86 kg/m3
same,mass density,"298.15 K, x1 = 0.15",841.555 ± 0.82 kg/m3
same,mass density,"298.15 K, x1 = 0.2022",852.057 ± 0.8 kg/m3
same,mass density,"298.15 K, x1 = 0.2535",861.607 ± 0.8 kg/m3
same,mass density,"298.15 K, x1 = 0.301",869.838 ± 0.79 kg/m3
same,mass density,"298.15 K, x1 = 0.3487",877.538 ± 0.79 kg/m3
same,mass density,"298.15 K, x1 = 0.4028",885.726 ± 0.8 kg/m3
same,mass density,"298.15 K, x1 = 0.4536",892.882 ± 0.8 kg/m3
same,mass density,"298.15 K, x1 = 0.6017",911.346 ± 0.85 kg/m3
same,mass density,"298.15 K, x1 = 0.6501",916.714 ± 0.87 kg/m3
same,mass density,"298.15 K, x1 = 0.7003",921.969 ± 0.9 kg/m3
same,mass density,"298.15 K, x1 = 0.7486",926.743 ± 0.93 kg/m3
same,mass density,"298.15 K, x1 = 0.7986",931.465 ± 0.96 kg/m3
same,mass density,"298.15 K, x1 = 0.8491",935.973 ± 1 kg/m3
same,mass density,"303.15 K, x1 = 0.0462",813.931 ± 0.87 kg/m3
same,mass density,"303.15 K, x1 = 0.0516",815.259 ± 0.87 kg/m3
same,mass density,"303.15 K, x1 = 0.1015",827.004 ± 0.85 kg/m3
same,mass density,"303.15 K, x1 = 0.1522",837.999 ± 0.83 kg/m3
same,mass density,"303.15 K, x1 = 0.2002",847.641 ± 0.82 kg/m3
same,mass density,"303.15 K, x1 = 0.2536",857.548 ± 0.81 kg/m3
same,mass density,"303.15 K, x1 = 0.3008",865.688 ± 0.8 kg/m3
same,mass density,"303.15 K, x1 = 0.3513",873.826 ± 0.8 kg/m3
same,mass density,"303.15 K, x1 = 0.3997",881.12 ± 0.81 kg/m3
same,mass density,"303.15 K, x1 = 0.4513",888.394 ± 0.81 kg/m3
same,mass density,"303.15 K, x1 = 0.5047",895.427 ± 0.83 kg/m3
same,mass density,"303.15 K, x1 = 0.552",901.283 ± 0.84 kg/m3
same,mass density,"303.15 K, x1 = 0.6546",912.925 ± 0.89 kg/m3
same,mass density,"303.15 K, x1 = 0.6992",917.561 ± 0.91 kg/m3
same,mass density,"303.15 K, x1 = 0.7074",918.41 ± 0.91 kg/m3
same,mass density,"303.15 K, x1 = 0.7476",922.362 ± 0.94 kg/m3
same,mass density,"303.15 K, x1 = 0.7976",927.051 ± 0.97 kg/m3
same,mass density,"303.15 K, x1 = 0.7988",927.176 ± 0.97 kg/m3
same,mass density,"303.15 K, x1 = 0.8959",935.611 ± 1 kg/m3
